Like-named read-outs stand apart in the source and are kept apart here.
What was measured:
[1] = Plasma pharmacokinetics study in mice (non-compartmental analysis, HPLC-DAD); type: in vivo, Balb/c mice; conditions: mean ± SD; for k el: read-out: ke (converted)
Method: The pharmacokinetic analysis was carried out with Balb/c mice (~30 g) obtained from the Animal Facilities at Oswaldo Cruz Foundation (Fiocruz, Bahia, Brazil) and kept in a room with environmental control (22 ± 2 °C and 12:12 h light–dark cycle), and with free access to water and food until the day of the experiment. Animal care and handling procedures were in strict accordance with the recommendations in the Guide for the Care and Use of Laboratory Animals of the National Institute of Health and the Brazilian College of Animal Experimentation. The protocol was approved by the Institutional Animal Care and Use Committee of FIOCRUZ (CEUA/FIOCRUZ, permit number: L-IGM-013/2021).
The compound was administered to the mice (n = 3 per time point) by inhalation and intravenous routes at 50 and 15 mg/kg, respectively. The intravenous administration was conducted through the lateral tail vein, and the inhalation dosing was conducted using inhalation exposure chambers. The nebulizer device was operated according to the manufacturer’s specifications. The blood samples were collected 0.083, 0.25, 0.5, 0.75, 1, 2, and 4 h after both administrations. The blood samples were centrifuged for plasma separation (6000 rpm, 10 min, 8 °C) and stored at −18 °C until analysis.
The non-compartmental pharmacokinetic parameters of both studies were estimated using PKanalix® Suite 2020R1 software (Lixoft®, Antony, France). The determined PK parameters included the elimination rate constant (ke), the elimination half-life (t1/2), the area under the concentration–time curve (AUC) calculated by the linear trapezoidal rule, the mean residence time (MRT), the total clearance (CL), and the volume of distribution (Vd).

[2] = Lung distribution in mice (AUC lung/AUC plasma ratio); type: in vivo; conditions: male, Balb/c, mouse, read-out: Lung penetration factor (AUC inf lung/AUC inf plasma)
Method: The lung distribution experiment used Male Balb/c (~30 g). After intravenous bolus and inhalation administration of 15 mg/kg and 50 mg/kg, respectively, of 6-methoxyseselin, three animals were sacrificed at 0.5 h, 1 h, 2 h, and 4 h, each. The lung samples were removed, gently blotted dry, weighed, and frozen at −80 °C until processing. On the day of the analysis, tissue samples were allowed to thaw and were weighed, and 2 mL of methanol was added per gram of tissue. The tissues were homogenized for approximately 5 min, and the homogenates were then transferred to Eppendorf® tubes and centrifuged at 3500× g for 15 min at 4 °C. A volume of supernatant was then processed similarly to the plasma samples and analyzed by HPLC-DAD. The lung penetration was calculated using the AUC lung/AUC plasma ratio. The trapezoidal method was used to estimate both AUCs.

[3] = Long-term stability in mice plasma stored at −18 °C; type: in vitro ADME
Method: Stability assays were performed in triplicate with the QC samples (LQC and HQC) by adding 6-methoxyseselin to mice plasma. The stability after 30, 45, and 60 days was performed with samples stored at −18 °C. 6-methoxyseselin was considered stable in plasma for the period evaluated when the accuracy was within acceptable limits (RSE within ±15%).

[4] = test system: arteries isolated from rats; parameters: method as in PMID 31711783, PMID 37149230; conditions: cited from earlier work
[5] = cited from earlier work
[6] = Balb/c, mouse, inhaled or intranasal, inhalation 50 mg/kg
[7] = Balb/c, mouse, intravenous 15 mg/kg

COc1cc2ccc(=O)oc2c2c1OC(C)(C)C=C2 [6-methoxyseselin]
MRT [1, 6]: 5.4 ± 2.1 h | half-life [1, 6]: 3.3 ± 0.86 h | k el [1, 6]: 5.83e-05 s⁻¹ | MRT [1, 7]: 3.23 ± 1.57 h | clearance [1, 7]: 88.7 mL/min/kg | half-life [1, 7]: 2.6 ± 0.73 h | Vd ([1]; Balb/c, mouse, intravenous 15 mg/kg, read-out: Vd): 19.6 ± 1.57 L/kg | k el [1, 7]: 7.5e-05 s⁻¹ | Cl ([1]; inhalation 50 mg/kg): 110 ± 39 mL/min/kg | Vd ([1]; inhalation 50 mg/kg): 18.79 ± 2.58 L/kg | Kp ([2]; inhaled, inhalation 50 mg/kg): 2.14 | Kp ([2]; intravenous 15 mg/kg): 1.45 | Stability in storage (verdict) ([3]; 60 days): unstable | Stability in storage (verdict) ([3]; until day 30): stable | Vasorelaxation [4]: potent vasorelaxation

CCCC1O[C@@H]2C[C@H]3[C@@H]4CCC5=CC(=O)C=C[C@]5(C)[C@H]4[C@@H](O)C[C@]3(C)[C@]2(C(=O)CO)O1 (stereo partly drawn) [budesonide]
half-life [5]: 2 to 3.6 h | Vd ([5]; reference not given, ref 22 follows in the same paragraph): 2.2 to 3.9 L/kg

CC(C)(C)NCC(O)c1ccc(O)c(CO)c1 (stereo not drawn) [salbutamol]
Vd [5]: 3 to 4 L/kg

Source: paper PMC11206778, “Preclinical Pharmacokinetic Study and Lung Penetration of a Coumarin Extracted from Zanthoxylum tingoassuiba” (Pharmaceutics, 2024)
